# According to patent publication US20040076974A1, “Liver necrosis predictive genes” (priority 2002, published 2004):
# Read-outs that look alike come from different tables or passages of the source.
# Test system: Sprague Dawley rats
# Protocol: Sprague Dawley rats Crl:CD from Charles River, Raleigh, N.C. were divided into treated rats that receive a specific concentration of the compound (see Table 1) and. control rats that only received the vehicle in which the compound is mixed (e.g., saline).
# At specified timepoints (6 h, 24 h and 72 h) after administration (intraperitoneal route) of the compound, a set number of rats (usually 3 control and 3 treated) were euthanized and tissues collected. Each, rat was heavily sedated with an overdose of CO2 by inhalation and a maximum amount of blood drawn. Exsanguination of the rat by this drawing of blood kills the rat. The method of collecting the tissues is very important and ensures preserving the quality of the mRNA in the tissues. The body of the rat was then opened up and prosectors rapidly removed the tissues (including) and immediately placed them into liquid nitrogen. […] The organs/tissues were then packaged into well-labeled plastic freezer quality bags and stored at −80 degrees until needed for isolation of the mRNA from a portion of the organ/tissue sample.
# Histopathology scores for each animal (assigned on a compound-dose basis as indicated in Table 1) were entered with gene expression data by using the GeneSpring™ ‘Drawn Gene’ function. Correlations between the histopathology scores and gene expression were conducted with the distance measures listed below:
# Toxicity classifications were entered for training and test set as a parameter column. Toxicity, as defined by observation of necrosis in the at 72 hours after treatment, was entered as a “yes” or “no” for each animal in a compound-dose group. Additionally, a parameter column for random histopathology classification was designated. This was done by randomly assigning the same number of “yes” and “no” calls to the individual animals.
# [1] = Sprague Dawley, rat, in vivo, ip, 50 mg/kg, 72 h
# [2] = Sprague Dawley, rat, in vivo, ip, 200 mg/kg, 72 h
# [3] = compound-dose group at 72 h; CCL4 1000, DMN 20, LPS 8
# [4] = rat, intraperitoneal, dose 20 mg/kg, 72 hours after treatment
# [5] = rat, intraperitoneal, dose 20 mg/kg, 72 hours; 1 = not remarkable, 2 and higher increasing severity
compound,measurement,setting,value
Cn1cnc([N+](=O)[O-])c1Sc1ncnc2nc[nH]c12 [azathioprine],Score (histopathology liver necrosis severity score),[1],1
same,Score (histopathology liver necrosis severity score),[2],1
same,Liver Toxicity Necrosis Classification,"rat, in vivo",no
same,Liver Necrosis,"rat, in vivo, ip, 50 mg/kg",No
same,Liver Necrosis,"rat, in vivo, ip, 200 mg/kg",No
polyethylene glycol,Liver Necrosis,"rat, in vivo, ip",no
lipopolysaccharide,Liver Toxicity Necrosis Classification,"72 h, dose 8",yes
same,Liver Toxicity Necrosis Classification,72 h; dose 2,no
same,Liver Toxicity Necrosis Classification,"compound-dose group at 72 h, dose 2",no
same,Liver Toxicity Necrosis Classification,"compound-dose group at 72 h, dose 8",yes
same,Liver Toxicity Necrosis Classification,[3],yes
same,Liver Toxicity Necrosis Classification,compound-dose group at 72 h; dose 2,no
same,Liver Toxicity Necrosis Classification,compound-dosegroup at 72 h; dose 2,no
same,Liver Toxicity Necrosis Classification,compound-dosegroup at 72 h; dose 8,yes
same,toxicity at the high dose,"rat, high dose of Table 1, liver necrosis at 72 hours",produced toxicity
same,Liver Necrosis,"rat, intraperitoneal, dose 2 mg/kg, 72 hours after treatment",no
same,Score (histopathology liver necrosis severity score),"rat, intraperitoneal, dose 2 mg/kg, 72 hours; 1 = not remarkable, 2 and higher increasing severity",1
same,Liver Necrosis,"rat, intraperitoneal, dose 8 mg/kg, 72 hours after treatment",Yes
same,Score (histopathology liver necrosis severity score),"rat, intraperitoneal, dose 8 mg/kg, 72 hours; 1 = not remarkable, 2 and higher increasing severity",6
same,toxicity at the low dose,"rat, low dose of Table 1, liver necrosis at 72 hours",not at the low dose
CN(C)CCCN1c2ccccc2Sc2ccc(Cl)cc21 [chlorpromazine],Score (histopathology liver necrosis severity score),"Sprague Dawley, rat, in vivo, ip, 8 mg/kg, 72 h",1
same,Score (histopathology liver necrosis severity score),"Sprague Dawley, rat, in vivo, ip, 30 mg/kg, 72 h",1
same,Liver Toxicity Necrosis Classification,"rat, in vivo",no
same,Liver Necrosis,"rat, in vivo, ip, 8 mg/kg",no
same,Liver Necrosis,"rat, in vivo, ip, 30 mg/kg",no
C[C@@H]1[C@H](O)[C@@H](C)/C=C/C=C/C=C/C=C/C=C/C=C/C=C/[C@H](O[C@@H]2O[C@H](C)[C@@H](O)[C@H](N)[C@@H]2O)C[C@@H]2O[C@](O)(C[C@@H](O)C[C@@H](O)[C@H](O)CC[C@@H](O)C[C@@H](O)CC(=O)O[C@H]1C)C[C@H](O)[C@H]2C(=O)O [amphotericin B],Liver Toxicity Necrosis Classification,72 h; dose 5,no
same,Liver Toxicity Necrosis Classification,72 h; dose 20,no
same,Liver Toxicity Necrosis Classification,AMPB 20; 72 h,no
same,Liver Toxicity Necrosis Classification,compound-dose group at 72 h; dose 5,no
same,Liver Toxicity Necrosis Classification,compound-dose group at 72 h; dose 20,no
same,Liver Toxicity Necrosis Classification,"compound-dosegroup at 72 h, dose 5",no
same,Liver Toxicity Necrosis Classification,"compound-dosegroup at 72 h, dose 20",no
same,Liver Necrosis,"rat, intraperitoneal, dose 5 mg/kg, 72 hours after treatment",No
same,Score (histopathology liver necrosis severity score),"rat, intraperitoneal, dose 5 mg/kg, 72 hours; 1 = not remarkable, 2 and higher increasing severity",1
same,Liver Necrosis,[4],No
same,Score (histopathology liver necrosis severity score),[5],1
NC(=O)NO [hydroxyurea],Score (histopathology liver necrosis severity score),"Sprague Dawley, rat, in vivo, ip, 250 mg/kg, 72 h",1
same,Score (histopathology liver necrosis severity score),"Sprague Dawley, rat, in vivo, ip, 1000 mg/kg, 72 h",1
same,Liver Toxicity Necrosis Classification,"rat, in vivo",no
same,Liver Necrosis,"rat, in vivo, ip, 250 mg/kg",no
same,Liver Necrosis,"rat, in vivo, ip, 1000 mg/kg",no
c1ccccc1 [benzene],Liver Toxicity Necrosis Classification,"rat, in vivo",no
same,Liver Necrosis,"rat, in vivo, ip",No
same,Score (histopathology liver necrosis severity score),"rat, in vivo, ip",1
CCO [ethanol],Liver Toxicity Necrosis Classification,"rat, in vivo",no
same,Liver Necrosis,"rat, in vivo, ip",no
same,Score (histopathology liver necrosis severity score),"rat, in vivo, ip",1
CN(Cc1cnc2nc(N)nc(N)c2n1)c1ccc(C(=O)N[C@@H](CCC(=O)O)C(=O)O)cc1 [methotrexate],Score (histopathology liver necrosis severity score),"Sprague Dawley, rat, in vivo, ip, 5 mg/kg, 72 h",1
same,Liver Toxicity Necrosis Classification,"rat, in vivo",no
same,Liver Necrosis,"rat, in vivo, ip, 5 mg/kg",no
O=NN(CCCl)C(=O)NCCCl [carmustine],Liver Toxicity Necrosis Classification,"72 h, dose 16",no
same,Liver Toxicity Necrosis Classification,"72 h; compound-dose group; dose BRB 800, BUS 14, CAD 1, CAR 16",no
same,Liver Toxicity Necrosis Classification,"compound-dose group at 72 h; BUS 14, CAD 1, CAR 16 (dose codes, Table 1)",no
same,Liver Toxicity Necrosis Classification,compound-dosegroup at 72 h; dose 16,no
same,Liver Necrosis,"rat, intraperitoneal, dose 16 mg/kg, 72 hours after treatment",no
same,Score (histopathology liver necrosis severity score),"rat, intraperitoneal, dose 16 mg/kg, 72 hours; 1 = not remarkable, 2 and higher increasing severity",1
CC(=O)N1CCN(c2ccc(OCC3COC(Cn4ccnc4)(c4ccc(Cl)cc4Cl)O3)cc2)CC1 (stereo not shown) [ketoconazole],Score (histopathology liver necrosis severity score),"Sprague Dawley, rat, in vivo, ip, 20 mg/kg, 72 h",1
same,Score (histopathology liver necrosis severity score),"Sprague Dawley, rat, in vivo, ip, 80 mg/kg, 72 h",1
same,Liver Toxicity Necrosis Classification,"rat, in vivo",no
same,Liver Necrosis,"rat, in vivo, ip, 20 mg/kg",no
same,Liver Necrosis,"rat, in vivo, ip, 80 mg/kg",no
C=CCN1CC[C@]23c4c5ccc(O)c4O[C@H]2C(=O)CC[C@@]3(O)[C@H]1C5 [naloxone],Liver Toxicity Necrosis Classification,"rat, in vivo",no
same,Score (histopathology liver necrosis severity score),"rat, in vivo, ip",1
same,Liver Necrosis,"rat, intraperitoneal, dose 180 mg/kg, 72 hours after treatment",no
same,Score (histopathology liver necrosis severity score),"rat, intraperitoneal, dose 180 mg/kg, 72 hours; 1 = not remarkable, 2 and higher increasing severity",1
same,Liver Necrosis,"rat, intraperitoneal, dose 45 ml/kg, 72 hours after treatment",no
CN(C)N=O [dimethylnitrosamine],Liver Toxicity Necrosis Classification,"72 h, dose 20",yes
same,Liver Toxicity Necrosis Classification,72 h; dose 20,yes
same,Liver Toxicity Necrosis Classification,[3],yes
same,Liver Necrosis,[4],Yes
same,Score (histopathology liver necrosis severity score),[5],9
NNC(=O)c1ccncc1 [isoniazid],Score (histopathology liver necrosis severity score),[1],1
same,Score (histopathology liver necrosis severity score),[2],1
same,Liver Toxicity Necrosis Classification,"rat, in vivo",no
same,Liver Necrosis,"rat, in vivo, ip, 50 mg/kg",no
same,Liver Necrosis,"rat, in vivo, ip, 200 mg/kg",no
